Laboratory results from BindingDB's records for doi:10.1016/j.ejmech.2019.01.048 (University of Berne, 2019).

Target: Transient receptor potential cation channel subfamily M member 4 (Homo sapiens, UniProt Q8TD43)
Assay: Inhibition of TRPM4 (unknown origin)

Chain of Transient receptor potential cation channel subfamily M member 4 (Q8TD43 whole entry): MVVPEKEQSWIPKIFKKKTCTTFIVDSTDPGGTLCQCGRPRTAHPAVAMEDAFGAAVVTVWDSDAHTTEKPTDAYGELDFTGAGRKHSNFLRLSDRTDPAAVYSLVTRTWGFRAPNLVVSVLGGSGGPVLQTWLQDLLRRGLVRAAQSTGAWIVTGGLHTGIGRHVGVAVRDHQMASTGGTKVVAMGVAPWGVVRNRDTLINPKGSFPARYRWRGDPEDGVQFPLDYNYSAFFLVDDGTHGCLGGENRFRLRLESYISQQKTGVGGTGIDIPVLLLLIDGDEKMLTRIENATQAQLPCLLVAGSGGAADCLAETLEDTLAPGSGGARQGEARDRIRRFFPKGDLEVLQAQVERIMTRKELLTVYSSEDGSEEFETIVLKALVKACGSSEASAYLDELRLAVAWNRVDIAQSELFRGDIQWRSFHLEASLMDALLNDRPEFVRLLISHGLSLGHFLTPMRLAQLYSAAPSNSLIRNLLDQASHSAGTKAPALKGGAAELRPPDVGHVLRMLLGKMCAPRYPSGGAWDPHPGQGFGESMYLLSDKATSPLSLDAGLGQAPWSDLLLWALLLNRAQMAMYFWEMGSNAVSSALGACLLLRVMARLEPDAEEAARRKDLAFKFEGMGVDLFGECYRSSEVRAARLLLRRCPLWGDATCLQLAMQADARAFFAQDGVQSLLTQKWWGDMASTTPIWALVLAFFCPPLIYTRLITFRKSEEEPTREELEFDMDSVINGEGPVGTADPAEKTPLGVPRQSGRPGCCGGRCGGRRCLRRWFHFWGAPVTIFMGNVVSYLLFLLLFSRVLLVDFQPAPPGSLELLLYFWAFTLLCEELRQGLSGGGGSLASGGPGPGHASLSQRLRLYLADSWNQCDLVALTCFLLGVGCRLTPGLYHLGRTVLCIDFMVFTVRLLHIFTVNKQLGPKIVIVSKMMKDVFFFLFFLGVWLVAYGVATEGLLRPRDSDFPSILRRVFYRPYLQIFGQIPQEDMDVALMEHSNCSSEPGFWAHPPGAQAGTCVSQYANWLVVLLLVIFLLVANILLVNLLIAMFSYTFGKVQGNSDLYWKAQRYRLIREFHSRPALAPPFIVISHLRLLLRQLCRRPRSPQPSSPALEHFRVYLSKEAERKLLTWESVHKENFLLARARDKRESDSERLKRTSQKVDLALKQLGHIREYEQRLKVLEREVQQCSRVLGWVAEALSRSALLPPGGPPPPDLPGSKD

Oc1cc2ccccc2c2ccccc12
IC50: 29 µM
